Measurements from patent US10023602B2, “Hamamelitannin analogues and uses thereof” (Universiteit Gent, priority 2014, dated 2018).

Assays:
[1] = tested on: methicillin resistant S. aureus Mu50 strain (S. aureus ATCC700699) biofilm; experiment: Biofilm susceptibility to vancomycin, pre-treatment regimen (biofilm formed in presence of compound, then vancomycin); format: cell-based; settings: for Pretreat (100 μM): percentage Colony Forming Units (CFU's) per biofilm: compound 100 μM during biofilm formation, then VAN 20 μg/ml, compared to the untreated (negative) control; for EC50: concentration needed to get 50% killing compared to antibiotic alone (VAN 20 μg/ml) and complete killing, read-out: Pretreat. (EC50)
Procedure: (§1) The compounds were evaluated for their effect on biofilm susceptibility both under pre-treatment and combination treatment regimens. In the pre-treatment regimen, a methicillin resistant S. aureus Mu50 strain (S. aureus ATCC700699) was allowed to form biofilms in the presence of the compounds after which the biofilm was treated with vancomycin (20 μg/ml). In the combination treatment regimen, S. aureus Mu50 was allowed to form a mature biofilm after which it was treated with a combination of a compound and vancomycin. In brief, 100 μl of a standardized inoculum (10^8 CFU/ml) was placed in the wells of a round-bottom 96-well microtiter plate. The cells were allowed to adhere to the plate in the absence (combined treatment) or presence (pre-treatment) of the compounds (0.1-250 μM) for 4 h at 37° C. After this adhesion step, non-adhered cells were removed, the wells were rinsed and fresh medium with or without the compounds was added. The plates were incubated for an additional 20 h at 37° C. After this, the medium was removed, biofilms were rinsed with physiological saline and vancomycin (20 μg/ml) was added alone (pre-treatment) or with the compounds (combined treatment, 0.1-250 μM). Plates were placed at 37° C. for 24 h after which medium was removed, wells were rinsed and the surviving cells in each condition were collected. The number of surviving cells under each condition was compared to vancomycin treatment alone and was assessed by conventional plating. The REF compound (hamamelitannin) was also observed for its effect on biofilm susceptibility towards other antibiotics (incl. vancomycin, cefoxitin, tobramycin, cefazolin, cefalonium, daptomycin, linezolide and cephalexin). Biofilms were formed as described above and were treated with the antibiotics alone or in combination with the REF compound (250 μM). The number of surviving cells under each condition was compared to the untreated control biofilm and was assessed by conventional plating.

[2] = tested on: methicillin resistant S. aureus Mu50 strain (S. aureus ATCC700699) biofilm; experiment: Biofilm susceptibility to vancomycin, combination treatment regimen (mature biofilm treated with compound plus vancomycin); format: cell-based; settings: for Combin. (100 μM): percentage Colony Forming Units (CFU's) per biofilm: compound 100 μM together with VAN 20 μg/ml on mature biofilm, compared to the untreated (negative) control; for EC50: concentration needed to get 50% killing compared to antibiotic alone (VAN 20 μg/ml) and complete killing, read-out: Combin. (EC50)
Procedure: as §1

Structure (SMILES)	Pretreat (100 μM): percentage Colony Forming Units (CFU's) per biofilm [1]	Combin. (100 μM): percentage Colony Forming Units (CFU's) per biofilm [2]	EC50 [1]	EC50 [2]
O=C(NC[C@H]1OC[C@@](O)(CNC(=O)c2ccccc2)[C@@H]1O)c1ccc2ccccc2c1 [compound 185, N-(((2R,3R,4S)-4-(benzamidomethyl)-3,4-dihydroxytetrahydrofuran-2-yl)methyl)-2-naphthamide]	22.11 percentage	36.32 percentage	–	–
Cn1c(C(=O)NC[C@H]2OC[C@@](O)(CNC(=O)c3ccccc3)[C@@H]2O)cc2ccccc21 [compound 186, N-(((2R,3R,4S)-4-(benzamidomethyl)-3,4-dihydroxytetrahydrofuran-2-yl)methyl)-1-methyl-1H-indole-2-carboxamide]	41.45 percentage	42.75 percentage	–	–
Cn1cc(C(=O)NC[C@H]2OC[C@@](O)(CNC(=O)c3ccccc3)[C@@H]2O)c2ccccc21 [compound 187, N-(((2R,3R,4S)-4-(benzamidomethyl)-3,4-dihydroxytetrahydrofuran-2-yl)methyl)-1-methyl-1H-indole-3-carboxamide]	32.91 percentage	29.24 percentage	–	–
O=C(NC[C@H]1OC[C@@](O)(CNC(=O)c2ccccc2)[C@@H]1O)c1ccccc1 [compound 188, N,N′-(((2R,3R,4S)-3,4-dihydroxytetrahydrofuran-2,4-diyl)bis(methylene))dibenzamide]	34.36 percentage	34.64 percentage	–	–
O=C(Cc1ccccc1)NC[C@H]1OC[C@@](O)(CNC(=O)c2ccccc2)[C@@H]1O [compound 189, N-(((3S,4R,5R)-3,4-dihydroxy-5-((2-phenylacetamido)methyl)tetrahydrofuran-3-yl)methyl)benzamide]	59.77 percentage	58.95 percentage	–	–
O=C(CCc1ccccc1)NC[C@H]1OC[C@@](O)(CNC(=O)c2ccccc2)[C@@H]1O [compound 190, N-(((3S,4R,5R)-3,4-dihydroxy-5-((3-phenylpropanamido)methyl)tetrahydrofuran-3-yl)methyl)benzamide]	64.43 percentage	29.24 percentage	–	–
O=C(NC[C@]1(O)CO[C@H](CNC(=O)C2CCCCC2)[C@H]1O)c1ccccc1 [compound 191, N-(((3S,4R,5R)-5-(cyclohexanecarboxamidomethyl)-3,4-dihydroxytetrahydrofuran-3-yl)methyl)benzamide]	32.28 percentage	19.28 percentage	–	–
O=C(NC[C@]1(O)CO[C@H](CNC(=O)c2c(Cl)cccc2Cl)[C@H]1O)c1ccccc1 [compound 192, N-(((2R,3R,4S)-4-(benzamidomethyl)-3,4-dihydroxytetrahydrofuran-2-yl)methyl)-2,6-dichlorobenzamide]	31.41 percentage	43.74 percentage	59.2 µM	136 µM
O=C(NC[C@]1(O)CO[C@H](CNC(=O)c2ccc(Cl)cc2Cl)[C@H]1O)c1ccccc1 [compound 193, N-(((2R,3R,4S)-4-(benzamidomethyl)-3,4-dihydroxytetrahydrofuran-2-yl)methyl)-2,4-dichlorobenzamide]	10.80 percentage	11.25 percentage	11.4 µM	11.7 µM
O=C(NC[C@]1(O)CO[C@H](CNC(=O)c2c(Cl)cc(Cl)cc2Cl)[C@H]1O)c1ccccc1 [compound 194, N-(((2R,3R,4S)-4-(benzamidomethyl)-3,4-dihydroxytetrahydrofuran-2-yl)methyl)-2,4,6-trichlorobenzamide]	20.50 percentage	13.31 percentage	–	–
O=C(NC[C@]1(O)CO[C@H](CNC(=O)c2c(Cl)cncc2Cl)[C@H]1O)c1ccccc1 [compound 195, N-(((2R,3R,4S)-4-(benzamidomethyl)-3,4-dihydroxytetrahydrofuran-2-yl)methyl)-3,5-dichloroisonicotinamide]	18.31 percentage	18.55 percentage	7.2 µM	9.26 µM
O=C(NC[C@]1(O)CO[C@H](CNC(=O)c2c(Cl)ccnc2Cl)[C@H]1O)c1ccccc1 [compound 196, N-(((2R,3R,4S)-4-(benzamidomethyl)-3,4-dihydroxytetrahydrofuran-2-yl)methyl)-2,4-dichloronicotinamide]	21.86 percentage	8.072 percentage	13 µM	7.88 µM
O=C(NC[C@]1(O)CO[C@H](CNC(=O)c2ccc(Cl)nc2Cl)[C@H]1O)c1ccccc1 [compound 197, N-(((2R,3R,4S)-4-(benzamidomethyl)-3,4-dihydroxytetrahydrofuran-2-yl)methyl)-2,6-dichloronicotinamide]	18.75 percentage	16.84 percentage	7.92 µM	8.27 µM
O=C(NC[C@]1(O)CO[C@H](CNC(=O)c2cnc(Cl)cc2Cl)[C@H]1O)c1ccccc1 [compound 198, N-(((2R,3R,4S)-4-(benzamidomethyl)-3,4-dihydroxytetrahydrofuran-2-yl)methyl)-4,6-dichloronicotinamide]	19.18 percentage	11.25 percentage	10.8 µM	7.52 µM
O=C(NC[C@]1(O)CO[C@H](CNC(=O)c2cccnc2Cl)[C@H]1O)c1ccccc1 [compound 199, N-(((2R,3R,4S)-4-(benzamidomethyl)-3,4-dihydroxytetrahydrofuran-2-yl)methyl)-2-chloronicotinamide]	68.76 percentage	65.56 percentage	> 250 µM	> 250 µM
O=C(NC[C@]1(O)CO[C@H](CNC(=O)c2ccncc2Cl)[C@H]1O)c1ccccc1 [compound 200, N-(((2R,3R,4S)-4-(benzamidomethyl)-3,4-dihydroxytetrahydrofuran-2-yl)methyl)-3-chloroisonicotinamide]	58.59 percentage	48.93 percentage	> 250 µM	232 µM
O=C(NC[C@]1(O)CO[C@H](CNC(=O)c2cnccc2Cl)[C@H]1O)c1ccccc1 [compound 201, N-(((2R,3R,4S)-4-(benzamidomethyl)-3,4-dihydroxytetrahydrofuran-2-yl)methyl)-4-chloronicotinamide]	51.81 percentage	74.81 percentage	200 µM	> 250 µM
O=C(NC[C@H]1OC[C@@](O)(CNC(=O)c2ccccc2)[C@@H]1O)c1ccc(Cl)nc1 [compound 202, N-(((2R,3R,4S)-4-(benzamidomethyl)-3,4-dihydroxytetrahydrofuran-2-yl)methyl)-6-chloronicotinamide]	14.00 percentage	18.24 percentage	–	–
O=C(NC[C@]1(O)CO[C@H](CNC(=O)c2ncccn2)[C@H]1O)c1ccccc1 [compound 203, N-(((2R,3R,4S)-4-(benzamidomethyl)-3,4-dihydroxytetrahydrofuran-2-yl)methyl)pyrimidine-2-carboxamide]	41.20 percentage	31.95 percentage	–	–
O=C(NC[C@]1(O)CO[C@H](CNC(=O)c2ccncn2)[C@H]1O)c1ccccc1 [compound 204, N-(((2R,3R,4S)-4-(benzamidomethyl)-3,4-dihydroxytetrahydrofuran-2-yl)methyl)pyrimidine-4-carboxamide]	13.04 percentage	15.85 percentage	–	–
O=C(NC[C@H]1OC[C@@](O)(CNC(=O)c2ccccc2)[C@@H]1O)c1cncnc1 [compound 205, N-(((2R,3R,4S)-4-(benzamidomethyl)-3,4-dihydroxytetrahydrofuran-2-yl)methyl)pyrimidine-5-carboxamide]	6.699 percentage	16.51 percentage	–	–
